Assay results from ChEMBL document CHEMBL5107965, “The progress of small-molecules and degraders against BCR-ABL for the treatment of CML” (Eur J Med Chem, 2022).
Converted amounts (≈) assume the structure as drawn. Each block holds one compound with its values, some of them ahead of it.

Key:
K562 [1] = test: Antiproliferative activity against human K562 cells assessed as cell growth inhibition; assay type: functional, cell-based
K562 [2] = test: Cytotoxicity against human K562 cells assessed as cell growth inhibition measured after 72 hrs by MTT assay; assay type: functional, cell-based; settings: K562, 72 h
K562 [3] = test: Antiproliferative activity against imatinib resistant human K562 cells assessed as cell growth inhibition measured after 48 to 72 hrs by MTS assay; assay type: functional, cell-based
[4] = biological target: Tyrosine-protein kinase ABL1 (Homo sapiens, UniProt P00519); test: Binding affinity to human recombinant His-tagged full length ABL1 expressed in baculovirus expression system by TR-FRET assay
KU812 cell line = test: Antiproliferative activity against human KU812 cell line assessed as cell growth inhibition measured after 24 hrs by WST-8 assay; assay type: functional, cell-based; settings: KU812, 24 h
[5] = biological target: Protein cereblon/Tyrosine-protein kinase ABL1/Breakpoint cluster region protein (Homo sapiens, UniProt P00519+P11274+Q96SW2); test: Protac activity at CRBN/BCR-ABL in human K562 cells assessed as reduction in BCR-ABL protein levels incubated for 6 hrs by Western blotting analysis; assay type: cell-based
K562 [6] = test: Antiproliferative activity against human K562 cells assessed as cell growth inhibition measured after 24 hrs by WST-8 assay; assay type: functional, cell-based; settings: K562, 24 h
KCL-22 = test: Antiproliferative activity against human KCL-22 cells assessed as cell growth inhibition measured after 24 hrs by WST-8 assay; assay type: functional, cell-based; settings: KCL-22, 24 h
K562 [7] = test: Antiproliferative activity against human K562 cells assessed as cell growth inhibition measured after 48 hrs by WST assay; assay type: functional, cell-based; settings: K562, 48 h
K562 [8] = test: Antiproliferative activity against imatinib resistant human K562 cells assessed as cell growth inhibition measured after 24 hrs by MTT assay; assay type: functional, cell-based; settings: K562, 24 h
[9] = Antiproliferative activity against human KM3 cells assessed as cell growth inhibition measured after 48 hrs by MTT assay; assay type: functional, cell-based; settings: KM3, 48 h
[10] = Antiproliferative activity against human KM3 cells assessed as cell growth inhibition measured after 24 hrs by MTT assay; assay type: functional, cell-based; settings: KM3, 24 h
[11] = Cytotoxicity against human Hematopoietic stem cell assessed as cell growth inhibition measured after 48 hrs by MTT assay; assay type: toxicity, cell-based; settings: hematopoietic stem cells
K562 [12] = test: Antiproliferative activity against imatinib resistant human K562 cells assessed as cell growth inhibition measured after 48 hrs by MTT assay; assay type: functional, cell-based; settings: K562, 48 h
[13] = Antiproliferative activity against human KM3 cells assessed as cell growth inhibition measured after 72 hrs by MTT assay; assay type: functional, cell-based; settings: KM3, 72 h
BaF3 [14] = test: Antiproliferative activity against mouse BaF3 cells harbouring ABL-T315I mutant assessed as cell growth inhibition measured after 72 hrs by MTT assay; assay type: functional, cell-based; settings: BaF3, 72 h
BaF3 [15] = test: cells; settings: Mus musculus, BaF3, 72 h
Description: Antiproliferative activity against mouse BaF3 cells harbouring wild type ABL assessed as cell growth inhibition measured after 72 hrs by MTT assay

KBM5 [16] = test: Antiproliferative activity against human KBM5 cells assessed as cell growth inhibition measured after 24 to 48 hrs by MTS assay; assay type: functional, cell-based
K562 [17] = test: Antiproliferative activity against human K562 cells assessed as cell growth inhibition measured after 24 to 48 hrs by MTS assay; assay type: functional, cell-based
KBM5 [18] = test: Antiproliferative activity against human KBM5 cells harbouring T315I mutant assessed as cell growth inhibition measured after 24 to 48 hrs by MTS assay; assay type: functional, cell-based
BaF3 [19] = test: cells; settings: Mus musculus
[20] = biological target: Mast/stem cell growth factor receptor Kit (Homo sapiens, UniProt P10721); test: Inhibition of c-Kit (unknown origin)
[21] = biological target: Platelet-derived growth factor receptor beta (Homo sapiens, UniProt P09619); test: Inhibition of PDGFRbeta (unknown origin)
Chain of Platelet-derived growth factor receptor beta (P09619 whole entry): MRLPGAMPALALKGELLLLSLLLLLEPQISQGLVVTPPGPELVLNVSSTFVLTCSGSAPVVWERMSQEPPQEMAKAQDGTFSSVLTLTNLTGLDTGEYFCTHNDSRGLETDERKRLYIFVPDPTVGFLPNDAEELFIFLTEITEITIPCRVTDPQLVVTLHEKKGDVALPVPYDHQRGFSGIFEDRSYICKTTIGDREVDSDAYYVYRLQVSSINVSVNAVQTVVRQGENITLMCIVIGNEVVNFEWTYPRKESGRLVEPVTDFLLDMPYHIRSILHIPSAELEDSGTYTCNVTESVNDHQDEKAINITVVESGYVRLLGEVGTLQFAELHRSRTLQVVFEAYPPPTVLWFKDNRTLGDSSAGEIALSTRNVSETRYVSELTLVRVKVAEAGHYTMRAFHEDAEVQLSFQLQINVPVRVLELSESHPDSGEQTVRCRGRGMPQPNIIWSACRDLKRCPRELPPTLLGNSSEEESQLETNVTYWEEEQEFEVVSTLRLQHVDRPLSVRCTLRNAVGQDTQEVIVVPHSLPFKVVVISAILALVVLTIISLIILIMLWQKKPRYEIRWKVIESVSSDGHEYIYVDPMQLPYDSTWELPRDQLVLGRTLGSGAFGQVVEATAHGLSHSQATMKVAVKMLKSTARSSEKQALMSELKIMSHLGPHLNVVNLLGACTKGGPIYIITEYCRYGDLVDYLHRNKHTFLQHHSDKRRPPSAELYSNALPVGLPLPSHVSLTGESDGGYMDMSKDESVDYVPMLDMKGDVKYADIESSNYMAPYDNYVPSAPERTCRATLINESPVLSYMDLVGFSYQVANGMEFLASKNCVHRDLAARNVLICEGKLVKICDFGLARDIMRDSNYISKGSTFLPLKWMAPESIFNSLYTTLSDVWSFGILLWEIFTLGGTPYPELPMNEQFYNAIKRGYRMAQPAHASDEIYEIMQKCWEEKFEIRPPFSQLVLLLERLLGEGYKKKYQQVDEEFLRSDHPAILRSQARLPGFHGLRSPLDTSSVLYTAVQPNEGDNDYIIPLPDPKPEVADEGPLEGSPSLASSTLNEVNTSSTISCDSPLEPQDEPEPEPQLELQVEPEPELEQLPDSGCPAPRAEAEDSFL

Chain of Mast/stem cell growth factor receptor Kit (P10721 whole entry): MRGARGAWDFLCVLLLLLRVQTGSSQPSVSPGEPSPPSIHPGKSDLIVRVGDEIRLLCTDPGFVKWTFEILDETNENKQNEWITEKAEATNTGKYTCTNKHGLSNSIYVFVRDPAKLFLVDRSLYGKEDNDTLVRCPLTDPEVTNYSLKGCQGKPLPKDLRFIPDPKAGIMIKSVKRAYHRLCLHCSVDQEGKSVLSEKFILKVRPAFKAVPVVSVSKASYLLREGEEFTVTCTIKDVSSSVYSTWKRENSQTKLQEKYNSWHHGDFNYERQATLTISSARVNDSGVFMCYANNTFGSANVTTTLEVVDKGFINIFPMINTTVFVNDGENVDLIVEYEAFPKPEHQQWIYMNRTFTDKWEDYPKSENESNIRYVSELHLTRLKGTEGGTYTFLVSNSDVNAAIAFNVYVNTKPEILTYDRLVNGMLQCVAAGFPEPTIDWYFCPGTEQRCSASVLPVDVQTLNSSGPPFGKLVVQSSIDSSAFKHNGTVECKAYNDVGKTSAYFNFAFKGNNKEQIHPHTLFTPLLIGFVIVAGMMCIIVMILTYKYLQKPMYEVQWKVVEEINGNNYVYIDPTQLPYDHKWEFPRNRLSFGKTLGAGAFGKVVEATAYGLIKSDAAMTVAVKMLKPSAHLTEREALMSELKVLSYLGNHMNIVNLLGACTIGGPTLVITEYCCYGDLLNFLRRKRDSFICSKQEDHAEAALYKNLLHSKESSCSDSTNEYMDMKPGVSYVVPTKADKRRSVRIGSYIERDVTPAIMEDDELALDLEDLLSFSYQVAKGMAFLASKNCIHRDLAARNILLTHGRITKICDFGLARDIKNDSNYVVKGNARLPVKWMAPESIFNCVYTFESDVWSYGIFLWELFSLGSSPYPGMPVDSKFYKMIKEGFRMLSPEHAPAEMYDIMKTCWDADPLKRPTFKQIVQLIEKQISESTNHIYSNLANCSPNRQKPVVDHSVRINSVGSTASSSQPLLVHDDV
Chain of Tyrosine-protein kinase ABL1 (P00519 whole entry): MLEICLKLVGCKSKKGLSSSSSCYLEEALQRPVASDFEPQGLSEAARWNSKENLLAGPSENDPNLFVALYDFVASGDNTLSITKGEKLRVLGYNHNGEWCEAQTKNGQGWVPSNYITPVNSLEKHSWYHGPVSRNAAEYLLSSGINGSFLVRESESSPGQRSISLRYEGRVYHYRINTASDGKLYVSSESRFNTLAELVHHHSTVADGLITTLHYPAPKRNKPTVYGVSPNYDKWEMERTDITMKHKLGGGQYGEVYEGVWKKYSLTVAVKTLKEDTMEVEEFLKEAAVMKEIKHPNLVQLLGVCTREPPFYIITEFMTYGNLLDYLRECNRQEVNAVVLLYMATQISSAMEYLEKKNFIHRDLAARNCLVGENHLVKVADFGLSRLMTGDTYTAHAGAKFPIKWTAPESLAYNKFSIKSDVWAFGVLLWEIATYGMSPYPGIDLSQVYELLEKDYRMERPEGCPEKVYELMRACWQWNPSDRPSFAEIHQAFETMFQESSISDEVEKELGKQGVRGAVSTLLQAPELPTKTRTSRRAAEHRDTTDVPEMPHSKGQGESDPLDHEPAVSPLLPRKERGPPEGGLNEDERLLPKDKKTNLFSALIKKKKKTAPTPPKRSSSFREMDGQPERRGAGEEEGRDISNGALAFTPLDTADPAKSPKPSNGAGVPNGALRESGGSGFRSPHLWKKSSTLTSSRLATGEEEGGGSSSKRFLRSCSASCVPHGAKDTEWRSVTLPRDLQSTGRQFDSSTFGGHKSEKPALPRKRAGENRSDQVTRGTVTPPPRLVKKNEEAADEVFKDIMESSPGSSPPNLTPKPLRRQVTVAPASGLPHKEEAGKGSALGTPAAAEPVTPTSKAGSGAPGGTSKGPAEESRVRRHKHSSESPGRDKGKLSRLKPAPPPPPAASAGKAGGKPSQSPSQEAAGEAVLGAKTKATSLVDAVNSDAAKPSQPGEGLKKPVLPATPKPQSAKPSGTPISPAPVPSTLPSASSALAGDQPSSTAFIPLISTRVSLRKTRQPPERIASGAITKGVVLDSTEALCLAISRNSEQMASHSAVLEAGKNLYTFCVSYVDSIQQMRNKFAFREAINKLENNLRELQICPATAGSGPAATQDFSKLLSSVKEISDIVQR
Chain of Protein cereblon/Tyrosine-protein kinase ABL1/Breakpoint cluster region protein (P00519 whole entry): as above
Chain of Protein cereblon/Tyrosine-protein kinase ABL1/Breakpoint cluster region protein (P11274 whole entry): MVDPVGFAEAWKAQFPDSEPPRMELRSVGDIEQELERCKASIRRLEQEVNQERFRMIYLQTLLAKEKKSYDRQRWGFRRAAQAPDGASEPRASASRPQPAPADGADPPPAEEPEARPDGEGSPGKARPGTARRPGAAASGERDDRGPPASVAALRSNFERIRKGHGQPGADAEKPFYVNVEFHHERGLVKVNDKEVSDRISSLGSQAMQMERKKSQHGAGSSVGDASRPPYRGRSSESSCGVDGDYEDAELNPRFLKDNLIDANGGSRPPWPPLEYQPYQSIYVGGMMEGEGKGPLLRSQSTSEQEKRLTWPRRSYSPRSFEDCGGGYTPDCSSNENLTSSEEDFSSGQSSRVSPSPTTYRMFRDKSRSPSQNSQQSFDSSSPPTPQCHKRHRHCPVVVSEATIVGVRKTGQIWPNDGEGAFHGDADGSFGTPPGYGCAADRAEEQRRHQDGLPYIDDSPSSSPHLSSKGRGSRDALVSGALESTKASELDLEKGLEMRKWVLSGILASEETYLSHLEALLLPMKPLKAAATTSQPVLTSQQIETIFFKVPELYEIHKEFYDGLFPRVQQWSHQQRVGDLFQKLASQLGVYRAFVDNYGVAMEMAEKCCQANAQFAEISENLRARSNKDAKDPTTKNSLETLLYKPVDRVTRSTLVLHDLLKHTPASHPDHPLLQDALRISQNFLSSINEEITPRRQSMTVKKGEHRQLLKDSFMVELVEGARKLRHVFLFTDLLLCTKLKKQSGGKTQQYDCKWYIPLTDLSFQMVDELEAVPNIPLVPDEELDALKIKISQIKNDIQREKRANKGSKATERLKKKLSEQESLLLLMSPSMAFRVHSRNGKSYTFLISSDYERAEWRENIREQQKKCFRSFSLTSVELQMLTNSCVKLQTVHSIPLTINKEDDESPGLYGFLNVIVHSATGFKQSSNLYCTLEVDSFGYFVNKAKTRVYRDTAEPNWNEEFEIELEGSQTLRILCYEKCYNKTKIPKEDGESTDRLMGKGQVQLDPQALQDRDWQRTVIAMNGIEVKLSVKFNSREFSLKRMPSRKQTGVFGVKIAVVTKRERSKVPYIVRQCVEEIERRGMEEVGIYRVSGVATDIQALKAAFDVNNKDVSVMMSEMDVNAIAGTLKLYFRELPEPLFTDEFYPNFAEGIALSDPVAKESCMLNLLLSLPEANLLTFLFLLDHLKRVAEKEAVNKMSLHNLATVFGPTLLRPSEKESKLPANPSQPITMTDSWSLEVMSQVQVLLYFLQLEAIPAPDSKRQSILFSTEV
Chain of Protein cereblon/Tyrosine-protein kinase ABL1/Breakpoint cluster region protein (Q96SW2 whole entry): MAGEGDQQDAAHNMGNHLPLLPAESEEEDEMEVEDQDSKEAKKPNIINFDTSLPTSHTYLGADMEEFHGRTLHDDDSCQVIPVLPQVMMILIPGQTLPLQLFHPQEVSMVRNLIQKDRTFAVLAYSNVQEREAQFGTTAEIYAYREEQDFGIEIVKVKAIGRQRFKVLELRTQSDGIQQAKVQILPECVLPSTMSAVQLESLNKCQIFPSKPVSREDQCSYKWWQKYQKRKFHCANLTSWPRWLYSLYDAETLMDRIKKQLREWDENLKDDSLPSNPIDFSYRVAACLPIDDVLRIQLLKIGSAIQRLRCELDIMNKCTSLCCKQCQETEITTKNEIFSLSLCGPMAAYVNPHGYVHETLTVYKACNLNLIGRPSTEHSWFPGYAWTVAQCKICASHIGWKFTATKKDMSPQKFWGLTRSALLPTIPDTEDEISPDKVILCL

IC50 [4]: 0.54 nM
DC50 [5]: 10 nM
IC50 (K562 [6]): 8.92 nM
Compound: CN[C@@H](C)C(=O)N[C@H](C(=O)N1CCC[C@H]1c1nc(C(=O)c2cccc(OCCCOCC(=O)N3CCN(c4cc(Nc5ncc(C(=O)Nc6c(C)cccc6Cl)s5)nc(C)n4)CC3)c2)cs1)C1CCCCC1
IC50 (KU812 cell line): 6.72 nM
IC50 (KCL-22): 8.06 nM

IC50 (BaF3 [14]): 11 nM
IC50 (BaF3 [15]): 13 nM
Compound: O=C(Nc1c[nH]nc1-c1nc2ccc(CN3CCOCC3)cc2[nH]1)NC1CC1 [AT-9283]

IC50 (BaF3 [19]): 100 nM
Compound: Cc1cc(Nc2cc(N3CCN(C)CC3)nc(Sc3ccc(NC(=O)C4CC4)cc3)n2)n[nH]1 [TOZASERTIB]

IC50 [20]: 666 nM
IC50 [21]: 308 nM
Compound: Cc1ncc(NC(=O)c2ccc(CN3CCN(C)CC3)c(C(F)(F)F)c2)cc1Nc1nccc(-c2cccnc2)n1 [FLUMATINIB]

Further lines, the compound ahead of its results:

Compound: COc1cc2c3cc1Oc1c(OC)c(OC)cc4c1[C@@H](Cc1ccc(OC(=O)c5ccc(Cl)cc5)c(c1)Oc1ccc(cc1)C[C@@H]3N(C)CC2)N(C)CC4
IC50 (K562 [1]): 0.5 µg/mL (≈ 0.669 µM)

Compound: Cc1ccc(C(=O)Nc2ccc(CN3CCN(C)CC3)c(C(F)(F)F)c2)cc1C#Cc1nnc2ccccn12 [VAMOTINIB]
IC50 (K562 [2]): 1 nM

Compound: CC(C)=CCC[C@]1(C)C=Cc2c(O)c3c(c(CC=C(C)C)c2O1)O[C@]12C(=C[C@@H]4C[C@H]1C(C)(C)O[C@@]2(C/C=C(/C)C(=O)O)C4=O)C3=O [GAMBOGIC ACID]
IC50 (K562 [3]): 620 nM

Compound: CN[C@@H](C)C(=O)N[C@H](C(=O)N1CCC[C@H]1c1nc(C(=O)c2ccc(OCCOCCOCCOCC(=O)N3CCN(c4cc(Nc5ncc(C(=O)Nc6c(C)cccc6Cl)s5)nc(C)n4)CC3)cc2)cs1)C1CCCCC1
IC50 (K562 [7]): 8.6 nM

Compound: COc1cc2c3cc1Oc1c(OC)c(OC)cc4c1[C@@H](Cc1ccc(O)c(c1)Oc1ccc(cc1)C[C@@H]3N(C)CC2)N(C)CC4 [BERBAMINE]
IC50 (K562 [8]): 17100 nM
IC50 [9]: 5.09 µg/mL (≈ 8.36 µM)
IC50 [10]: 8.17 µg/mL (≈ 13.4 µM)
IC50 at 48 h [11]: 185 µg/mL (≈ 304 µM)
IC50 (K562 [12]): 11100 nM
IC50 [13]: 3.84 µg/mL (≈ 6.31 µM)

Compound: COc1ccc(-c2cc(=O)c3c(O)cc(O)cc3o2)cc1O [DIOSMETIN]
IC50 (KBM5 [16]): 8520 nM
IC50 (K562 [17]): 8420 nM
IC50 (KBM5 [18]): 6460 nM
